Assays:
C. acnes strain C3 = test: Evaluation of the minimum inhibitory concentration (MIC) of cosmetic excipients; type: cell-based, Cutibacterium acnes; conditions: MIC (% w/vol) at which compound starts interfering with growth, anaerobic, 3 days, 37° C., scored by turbidity
Protocol: (§1) In microbiology, the MIC is the lowest concentration of a chemical which prevents visible growth of bacterium. The resulted MIC value depends both on the microorganism and the test compound. The MIC is determined by preparing concentrations series of the test compound in vitro, incubating the solutions with the separate batches of cultured bacteria, and measuring the results using agar dilution or broth microdilution. For the experiments with C. acnes strains C3 and K8, media comprising yeast extract soy peptone and dextrose were used. The MIC is determined by turbidity.
(§2) A total of 125 cosmetic excipients were tested for their compatibility with C. acnes strains C3 and K8. Hydrophilic compounds were tested in a 96-well plate liquid broth format, poorly soluble compounds were pre-dissolved in DMSO before dilution in liquid broth and hydrophobic or solid compounds were tested in an agar well diffusion test assay. The different dilutions of the test excipients in media were prepared in Falcon tubes and then distributed in a deep well plate using a multistepper. Each well received 1.2 ml and was subsequently inoculated with 120 μl of C. acnes bacteria suspension (strain C3 and K8). From the deep well plate 200 μl were transferred in each well of a clear 96 well replicate plate. The leftover was discarded. The plates were then incubated anaerobically for 3 days at 37° C. Following incubation, the test plates were visually examined and wells were scored for growth or complete growth inhibition to define the minimum inhibitory concentration.
(§3) These excipients are listed in the below table with their compatibility values for C. acnes strains C3 and K8. The compatibility values represent the MIC value of the listed ingredients with the tested C. acnes strains. At this concentration [% w/vol] the tested compound starts interfering with the growth of the tested strains. The compounds can be used in formulations at concentrations below this concentration.

C. acnes strain K8 = test: as above; type: cell-based, Cutibacterium acnes; conditions: MIC (% w/vol) at which compound starts interfering with growth, anaerobic, 3 days, 37° C., scored by turbidity
Protocol: as §1, §2, §3

| Molecule | COMPATABILITY VALUE C3 [%] (C. acnes strain C3) | COMPATABILITY VALUE K8 [%] (C. acnes strain K8) |
| --- | --- | --- |
| CCCCCCC(O)CO (centres unmarked) [caprylyl glycol] | 0.18% | 0.18% |
| tocopherol | 1.50% | 1.50% |
| ethylhexyl cocoate | 10.00% | 10.00% |
| CC(CO)CO [methylpropanediol] | 4.00% | 4.00% |
